The target in data set [1] is Human immunodeficiency virus type 1 protease (Human immunodeficiency virus 1, UniProt Q72874). The data set can be described thus: Inhibition of HIV-1 protease using Arg-Glu (EDANS)-Ser-Gln-Asn-Tyr-Pro-lle-Val-Gln-Lys (DABCYL)-Arg as substrate preincubated for 20 to 30 mins followed by substrate addition and measured by FRET assay.
A short description of data set [2]: Cytotoxicity against human HEK-293T cells after 24 hrs by CCK-8 assay. Type of data set: toxicity, cell-based. A general note: Tetrazolium assays rely on reduction of a dye to a coloured formazan, in cell work by metabolically active cells.
The subject of a further data set is HIV-1 protease. The data set can be described thus: Selectivity index, ratio IC50 for cytotoxicity against human HEK-293T cells over IC50 for inhibition of HIV-1 protease. The data set is classed as toxicity, cell-based. The settings on record: read-out: Ratio CC50/IC50.
Data set [3] concerns Human immunodeficiency virus 1. Description: Antiviral activity against HIV1 NL4-3 Env-deficient VSV-G pseudotyped virus infected in human SUP-T1 cells assessed as inhibition of late stage viral production at 10 uM measured after 48 hrs by luciferase assay relative to control. Type of data set: functional. To be noted: Human immunodeficiency virus 1, NL4-3, SUP-T1.
In data set [4] the test system is Human immunodeficiency virus 1. Description: Antiviral activity against wild type HIV1 NL4-3. The data set is classed as functional, organism-based. The settings on record: Human immunodeficiency virus 1, NL4-3.
For data set [5], the system named is Human immunodeficiency virus 1. The data set can be described thus: Antiviral activity against DRV resistant HIV1. Type of data set: functional, organism-based.
In data set [6] the test system is Human immunodeficiency virus 1. Description: Antiviral activity against HIV1 subtype C isolate ZM246. The settings on record: Human immunodeficiency virus 1, subtype C isolate ZM246. Type of data set: functional, organism-based.
The subject of data set [7] is Human immunodeficiency virus 1. Description: Antiviral activity against HIV1 subtype C isolate Indie. The data set is classed as functional, organism-based. The settings on record: Human immunodeficiency virus 1, subtype C isolate Indie.
In data set [8] the test system is Human immunodeficiency virus 1. Description: Antiviral activity against HIV1 NL4-3 Env-deficient VSV-G pseudotyped virus infected in human SUP-T1 cells assessed as inhibition of late stage viral production at 100 nM measured after 48 hrs by luciferase assay relative to control. The data set is classed as functional. To be noted: Human immunodeficiency virus 1, NL4-3, SUP-T1.

Data set [9] is described as follows: Selectivity index, ratio EC50 for Antiviral activity against DRV resistant HIV1 over EC50 for wild type HIV1 NL4-3.

pEC50, pIC50: −log10 of the molar value.

One may read the pIC50 as the negative decadic logarithm of the IC50, by convention in mol/L. A lower pIC50 goes with a large IC50. For orientation: CC50 means the concentration giving 50% cytotoxicity. Higher therefore signals lower toxicity to the cells. In turn, `CC(C)CN(C[C@@H](O)[C@H](Cc1ccccc1)NC(=O)[C@@H]1COCCN1)S(=O)(=O)c1ccc(N)cc1` had a pIC50 in data set [1] of 7.50. The CC50 at 24 h in data set [2] is more than 200000 nM. The selectivity ratio in the data set with HIV-1 protease was more than 6390.
The corresponding values for `CC(C)CN(C[C@@H](O)[C@H](Cc1ccccc1)NC(=O)[C@H]1CNCCO1)S(=O)(=O)c1ccc(NO)cc1` are 7.47, 11200 nM and 328.
The like results for `COc1ccc(S(=O)(=O)N(CC(C)C)C[C@@H](O)[C@H](Cc2ccccc2)NC(=O)CN2CCS(=O)(=O)CC2)cc1` were, in that order, 7.61, more than 200000 nM and more than 8230.
Broadly, the inhibition is the change of the read-out against control, counted positive when it falls. Regarding `COc1ccc(S(=O)(=O)N(CC(C)C)C[C@@H](O)[C@H](Cc2ccccc2)NC(=O)OC[C@H]2CNCCO2)cc1`, the pIC50 in data set [1] was 9.17. Further, the CC50 at 24 h in data set [2] is more than 200000 nM. Besides, the selectivity ratio in the data set with HIV-1 protease is more than 299000. Also, the inhibition at 10 µM in data set [3] came to 100%.
For orientation: pEC50 means the EC50 on a negative log10 scale, so that one unit is a factor of ten. As for `CC(C)CN(C[C@@H](O)[C@H](Cc1ccccc1)NC(=O)O[C@H]1CO[C@H]2OCC[C@H]21)S(=O)(=O)c1ccc(N)cc1`, the CC50 at 24 h in data set [2] is more than 200000 nM. For the same molecule, the negative-log EC50 (pEC50) in data set [4] is 8.72; in [5], 6.96; in data set [6], 8.70; in data set [7], 8.90. Besides, the inhibition at 0.1 µM in [8] worked out at 100%.
Turning to `CC(C)CN(C[C@@H](O)[C@H](Cc1ccccc1)NC(=O)CN1CCS(=O)(=O)CC1)S(=O)(=O)c1ccc(O)cc1`, the pIC50 in data set [1] was 7.97. The same molecule registered a CC50 at 24 h in [2] of more than 200000 nM. Also, the selectivity ratio in the data set with HIV-1 protease was more than 18800.
In the case of `COc1ccc(S(=O)(=O)N(CC(C)C)C[C@@H](O)[C@H](Cc2ccccc2)NC(=O)OC[C@H]2CN(C)CCO2)cc1`, in [1], the pIC50 was 8.65. In addition, the CC50 at 24 h in [2] was more than 200000 nM. The selectivity ratio in the data set with HIV-1 protease is more than 88900. In data set [3], the inhibition at 10 µM came out at 100%.
Molecule `CC(C)CN(C[C@@H](O)[C@H](Cc1ccccc1)NC(=O)[C@H]1CNCCO1)S(=O)(=O)c1ccc(N)cc1` showed a pIC50 in [1] of 7.27. The molecule further showed a CC50 at 24 h in data set [2] of more than 200000 nM. The selectivity ratio in the data set with HIV-1 protease is more than 3680.
Molecule `CC(C)CN(C[C@@H](O)[C@H](Cc1ccccc1)NC(=O)CN1CCS(=O)(=O)CC1)S(=O)(=O)c1ccc(NO)cc1` gave a pIC50 in data set [1] of 7.32. Also, the CC50 at 24 h in data set [2] is more than 200000 nM. In the data set on HIV-1 protease, the selectivity ratio was more than 4220.
The like results for `COc1ccc(S(=O)(=O)N(CC(C)C)C[C@@H](O)[C@H](Cc2ccccc2)NS(=O)(=O)N2CCOCC2)cc1` were, in that order, 7.72, 60300 nM and 3140.
As for `COc1ccc(S(=O)(=O)N(CC(C)C)C[C@@H](O)[C@H](Cc2ccccc2)NC(=O)[C@H]2CNCCO2)cc1`, the pIC50 in data set [1] was 7.93. In [2], this molecule showed a CC50 at 24 h of more than 200000 nM. Moreover, in the data set with HIV-1 protease, the selectivity ratio was more than 17200.
In turn, `CC(C)CN(C[C@@H](O)[C@H](Cc1ccccc1)NC(=O)[C@@H]1COCCN1)S(=O)(=O)c1ccc(NO)cc1` gave a pIC50 in data set [1] of 8.52. Also, in data set [2], the CC50 at 24 h amounted to 145000 nM. Further, in the data set on HIV-1 protease, the selectivity ratio came to 48400. Also, in data set [3], the inhibition at 10 µM turned out to be 93%.
`CNc1ccc(S(=O)(=O)N(CC(C)C)C[C@@H](O)[C@H](Cc2ccccc2)NC(=O)[C@H]2CNCCO2)cc1` had a pIC50 in data set [1] of 7.04. Further, the CC50 at 24 h in data set [2] was more than 200000 nM. Further, in the data set on HIV-1 protease, the selectivity ratio is more than 2220.
The corresponding values for `CC(C)CN(C[C@@H](O)[C@H](Cc1ccccc1)NC(=O)OC[C@H]1CNCCO1)S(=O)(=O)c1ccc(O)cc1` are 8.72, more than 200000 nM and more than 105000.
The like results for `CC(C)CN(C[C@@H](O)[C@H](Cc1ccccc1)NC(=O)[C@H]1CNCCO1)S(=O)(=O)c1ccc(O)cc1` were, in that order, 8.25, more than 200000 nM and more than 35400.
Turning to `CC(C)CN(C[C@@H](O)[C@H](Cc1ccccc1)NC(=O)[C@@H]1COCCN1C)S(=O)(=O)c1ccc(O)cc1`, the “Ratio EC50” value in [9] is reported as 13. Besides, the pIC50 in [1] is 8.92. The CC50 at 24 h in data set [2] was determined as 135000 nM. Moreover, the selectivity ratio in the data set with HIV-1 protease amounted to 113000. Further, the inhibition at 10 µM in data set [3] worked out at 100%. The pEC50 in data set [4] was 6.77; in data set [5], 5.66.
With `CC(C)CN(C[C@@H](O)[C@H](Cc1ccccc1)NC(=O)[C@@H]1COCCN1)S(=O)(=O)c1ccc(O)cc1`, the “Ratio EC50” value in [9] is 14. For the same molecule, the pIC50 in data set [1] is 10.05. The same molecule registered a CC50 at 24 h in data set [2] of more than 200000 nM. In addition, the selectivity ratio in the data set with HIV-1 protease is more than 2.22e+06. In addition, the inhibition at 10 µM in data set [3] stood at 100%. Besides, the pEC50 was 7.05 in data set [4], 5.89 in [5], 7.87 in [6] and 8.08 in data set [7].
`CC(C)CN(C[C@@H](O)[C@H](Cc1ccccc1)NS(=O)(=O)N1CCOCC1)S(=O)(=O)c1ccc(N)cc1` had a pIC50 in data set [1] of 7.45. The CC50 at 24 h in data set [2] amounted to 101000 nM. Further, the selectivity ratio in the data set on HIV-1 protease was 2860.
In the case of `COc1ccc(S(=O)(=O)N(CC(C)C)C[C@@H](O)[C@H](Cc2ccccc2)NC(=O)[C@@H]2COCCN2)cc1`, the “Ratio EC50” value in [9] was 9. Moreover, the pIC50 in [1] was 9.41. In [2], the CC50 at 24 h was more than 200000 nM. The selectivity ratio in the data set with HIV-1 protease is more than 513000. Moreover, in [3], the inhibition at 10 µM was found to be 100%. Moreover, the figures for the pEC50 in [4] and in [5] were 6.47 and 5.50, respectively.
In data set [1], `CC(C)CN(C[C@@H](O)[C@H](Cc1ccccc1)NC(=O)OC[C@H]1CN(C)CCO1)S(=O)(=O)c1ccc(O)cc1` gave a pIC50 of 8.81. This molecule yielded a CC50 at 24 h in data set [2] of more than 200000 nM. The selectivity ratio with HIV-1 protease was more than 130000.
As for `CC(C)CN(C[C@@H](O)[C@H](Cc1ccccc1)NC(=O)[C@@H]1COCCN1C)S(=O)(=O)c1ccc(NO)cc1`, the pIC50 in [1] was 7.57. In addition, it took 94600 nM to reach half-maximal cytotoxicity in data set [2] (CC50 at 24 h). Besides, in the data set on HIV-1 protease, the selectivity ratio worked out at 3550. The inhibition at 10 µM in data set [3] is 78%.
With `CNc1ccc(S(=O)(=O)N(CC(C)C)C[C@@H](O)[C@H](Cc2ccccc2)NC(=O)[C@@H]2COCCN2)cc1`, the pIC50 in data set [1] was 7.02. In data set [2], the CC50 at 24 h was more than 200000 nM. The selectivity ratio in the data set on HIV-1 protease was more than 2090.
The corresponding values for `CC(C)CN(C[C@@H](O)[C@H](Cc1ccccc1)NC(=O)OC[C@H]1CNCCO1)S(=O)(=O)c1ccc(N)cc1` are 7.71, 200000 nM and more than 10100.
The corresponding values for `CC(C)CN(C[C@@H](O)[C@H](Cc1ccccc1)NC(=O)OC[C@H]1CN(C)CCO1)S(=O)(=O)c1ccc(NO)cc1` are 7.86, more than 200000 nM and more than 14400.
The corresponding values for `CC(C)CN(C[C@@H](O)[C@H](Cc1ccccc1)NC(=O)OC[C@H]1CNCCO1)S(=O)(=O)c1ccc(NO)cc1` are 8.61, more than 200000 nM and more than 81600.
In [1], `CC(C)CN(C[C@@H](O)[C@H](Cc1ccccc1)NC(=O)[C@@H]1COCCN1)S(=O)(=O)c1ccc(S(C)(=O)=O)cc1` gave a pIC50 of 6.34. The molecule also gave a CC50 at 24 h in data set [2] of more than 200000 nM. The selectivity ratio with HIV-1 protease is more than 440.
For `COc1ccc(S(=O)(=O)N(CC(C)C)C[C@@H](O)[C@H](Cc2ccccc2)NC(=O)[C@@H]2COCCN2C)cc1`, the “Ratio EC50” value in [9] is 6. For the same molecule, the pIC50 in [1] is 8.32. For the same molecule, it took 132000 nM to reach half-maximal cytotoxicity in data set [2] (CC50 at 24 h). For the same molecule, the selectivity ratio in the data set on HIV-1 protease stood at 27300. Besides, the inhibition at 10 µM in data set [3] stood at 100%. Further, the pEC50 in data set [4] was 6.46; in data set [5], 5.70.

The record behind these values is ChEMBL document CHEMBL5154794, “Design, synthesis and biological evaluation of protease inhibitors containing morpholine cores with remarkable potency against both HIV-1 subtypes B and C” (Eur J Med Chem, 2022).
